Molecules are shown by their SMILES. Converted amounts (≈) assume the structure as drawn. “And” between values parts separate entries of the source, which are not always exact repeats. Identical values can stand only once. “Also recorded” adds a separate entry of the source.

For data set [1], the system named is opioid-induced respiratory depression in the rat. In words: Opioid-induced changes in arterial blood gas parameters, arterial blood gas analysis. In kind it is in vivo. To be noted: for Arterial Blood Gases - OIRD, pCO2 (mmHg) and saO2 (%): reversal of opioid-induced respiratory depression: 3 mg/kg/min IV infusion after 10 mg/kg IV morphine, compared to vehicle; for PaCO2: % reversal / PaO2: % reversal / pH % reversal / saO2: % reversal: 3.0 mpk/min IV infusion after morphine 10 mg/kg, vs composite vehicle group, 15 min into 20 min infusion. The method, then:
Rats with pre-cannulated jugular vein and femoral arterial catheters (for administrating drugs and obtaining blood samples respectively) were obtained from Harlan laboratories and kept at the animal facility at Galleon Pharmaceuticals until the experimental procedures. All animals experiments were carried out according to the US law on animals care and use approved by Galleon Pharmaceuticals IACUC. Each animal was dosed with morphine sulfate (10 mg/kg), dissolved in saline at a concentration of 10 mg/ml, via injection into the jugular vein over a period of 20 seconds with a 20 second flush of 0.9% NaCl saline. Prior to morphine administration, two 250 μL samples of arterial blood were aspirated from the femoral artery into a pre-heparinized syringe. The samples were analyzed on Radiometer's ABL Flex 800, where pO2, pCO2, pH, saO2 and other parameters were recorded. Aspirated volumes of arterial blood were replaced by room temperature sterile saline (˜300 μL) slowly flushed back into the femoral arterial catheter of the rodent to prevent anemia and/or dehydration. Morphine was then administered and 2 minutes later another blood sample was taken. After a period of 5 min from the administration of morphine, (−)-doxapram, (+)-doxapram or racemic doxapram (15 mg/mL) was administered via infusion into the jugular vein at a rate of 60 μL/min/300 gram rat. The infusion started at t=15 minutes and ended at t=35 minutes. Arterial blood gas analysis occurred at time points t=17, 25, 30, 37, 45, and 50 minutes. […] The small improvements in blood gas parameters seen towards the end of the experiment in the (−)-doxapram group were associated with behavioral toxicities and therefore cannot be distinguished from non-specific side effects. Results are illustrated in Table 4 and FIGS. 3-4.

Data set [2] relates to hypoxic ventilatory response in the rat. In words: Hypoxic ventilatory response to 12% O2, plethysmography. To be noted: IV infusion (Table 5: 1, 3 mg/kg/min; text: 3 mg/kg/min), compared to vehicle. Format: in vivo. As to the method: Rats with a pre-cannulated jugular vein (for administrating drugs) were acclimated to plethysmography chambers for a minimum of 60 minutes, or until animals were no longer restless. Each animal was dosed with (−)-doxapram, (+)-doxapram, or racemic doxapram via infusion into the jugular vein catheter over a period of 15 minutes, at 3 mg/kg/min at 0.020 ml/min based on a 300 gram rat. After a period of 15 minutes, an isocapnic, hypoxic mixture (12% O2 balanced N2) was administered into all chambers using a gas mixer (CWE inc. GSM-3 gas mixer) for 15 minutes. After 15 minutes, the gas mixer was turned off, resulting in normal room air pumped into the chambers. Ten minutes later, the infusion pumps were turned off, and all animals were given a 15 minute recovery period, followed by a post-study analysis of rat health and behavior. […] The small increases in minute ventilation seen towards the end of the experiment in the (−)-doxapram group (i.e. T20-T55) were associated with behavioral toxicities and therefore cannot be distinguished from non-specific side effects. Results are illustrated in FIG. 5 and Table 5.

A short description of data set [3]: Solubility in EtOH/MeOH for the chromatographic separation. Format: physicochemical. The settings on record: organic solvent or mixture. As to the method:
With stirring and sonication, 2.51 g of racemic doxapram were dissolved in approximately 200 mL EtOH/MeOH (50/50 v/v). The solution was injected onto the chromatographic column using the conditions illustrated above. The injection volume was 4 mL, performed every 7 minutes. The appropriate fractions collected from the chromatographic process were concentrated using rotary evaporators at 40° C. and 50 mbar. After solvent removal, the products were dried in a vacuum oven at 40° C. to obtain (−)-doxapram (1.19 g, 95% yield, ?99% e.e.) and (+)-doxapram (1.34 g, 107% yield, ≧99% e.e.). The experimental recovery of (+)-doxapram may have been high due to residual DMEA in the system.
A sample of 19.94 g of racemic doxapram was dissolved in approximately 1.0 L of EtOH/MeOH 80/20 (v/v) with stirring and sonication. The injection volume was 4 mL, and injection was performed every 5.83 min. The appropriate fractions collected from the chromatographic process were concentrated using rotary evaporators at 40° C. and 50 mbar. After solvent removal, the products were dried in a vacuum oven at 40° C. to obtain (−)-doxapram (8.47 g, 85% yield, ≧99% e.e.) and (+)-doxapram (12.50 g, 125% yield, ≧99% e.e.). The experimental recovery of (+)-doxapram may have been high due to residual DMEA in the system.

Data set [4] relates to spontaneously breathing rats. Put plainly: In vivo spirometry: cumulative dose-dependent ventilatory response (maximum peak minute ventilation). On the set-up: species or system rat. The method, then:
(§1) All surgical procedures were performed under anesthesia induced by 2% isoflurane in compressed medical grade air. With rats in supine position, the right femoral vein was catheterized using polyethylene tubing (PE-50). This catheter was used for fluid and drug administration. Simultaneously, the right femoral artery was also catheterized for monitoring blood pressure. In order to measure the respiratory parameters in spontaneously breathing rats, trachea was intubated using 13 gauge tracheal tube (2.5 mm ID, Instech Solomon, Pa.).
After establishing a stable base-line at 1.5% isoflurane, cumulative dose-dependent (1, 3, 10 and 30 mg/kg) ventilatory responses to (−)-doxapram, (+)-doxapram, or racemic doxapram were generated from spontaneously breathing rats. Maximum peak minute ventilatory (MV) values at each dose from corresponding drug were calculated and used for generating ED50 values. Results are illustrated in Table 3 and FIG. 1. All the specific ventilatory stimulant activity of racemic doxapram was associated with the (+)-enantiomer.

The test system of data set [5] is opioid-induced respiratory depression in the rat. Put plainly: Opioid-induced respiratory depression, plethysmography (minute ventilation). The settings on record: 1, 3 mg/kg/min IV infusion after 10 mg/kg IV morphine; compared to vehicle. Format: in vivo. As to the method:
All animal experiments were carried out according to the US law on animals care and use approved by Galleon Pharmaceuticals Institutional Animal Care and Use Committee (IACUC). Rats with pre-cannulated jugular vein (for administrating drugs) were acclimated to plethysmography chambers for a minimum of 60 minutes, or until animals were no longer restless. Each animal was dosed with morphine sulfate (10 mg/kg), dissolved in sterile water at a concentration of 10 mg/mL (supplied by Baxter Healthcare Corporation), via injection into the jugular vein catheter over a period of 5-10 seconds. After a period of 5 min, (−)-doxapram, (+)-doxapram, or racemic doxapram ([…]) was administered via infusion into the jugular vein at a rate of 0.020 mL/min for a 300 gram rat. Behavioral observations were made though the course of the experiment. After 20 min of infusion at 1 mg/kg/min, the infusion rates were tripled from 0.020 mL/min to 0.060 mL/min for all rats, based on body weight. After 20 minutes of infusion at this dose, the infusion pumps were turned off, and all animals were given a 20 minute recovery period, followed by a post-study analysis of rat health and behavior. […] The small increase in minute ventilation seen towards the end of the experiment in the (−)-doxapram group was associated with behavioral toxicities and therefore cannot be distinguished from non-specific side effects. […]

A further data set relates to rat. In words: Cardio-respiratory traces after IV bolus (respiratory flow, volumes, minute ventilation, blood pressure). Format: in vivo. The method, then:
as §1
The procedure outlined in Example 1 was used herein. […] Results are illustrated in FIG. 6.
The procedure described in Example 1 was used herein to evaluate the effect of (−)-doxapram on mean arterial blood pressure (MAP) in the rat. […] Results are illustrated in FIG. 8.

Another data set deals with rats. Put plainly: Observations of animal behavior and adverse effects. Format: in vivo, rat. The text has this: In Examples 1-7 described above, all rats are observed for behavioral changes and adverse effects, as recognized by those skilled in the art. Such effects include central nervous system and motor effects such as impairment, sedation, and convulsive potential, and mortality. Other effects related to bodily functions are also observable and may include changes in breathing, urination, defecation, posture, and normal cage activities (i.e., grooming, exploring, eating, etc.). […]

Data set [6] can be described thus: Comparative IV pharmacokinetics of a 20 min infusion. Format: in vivo. To be noted: 20 min infusion of 3 mg/kg/min IV. The method, then:
FIG. 9 is a set of graphs illustrating the IV pharmacokinetics of a 20-minute infusion (from 15 minutes to 35 minutes) of 3 mg/kg/min IV (+)-doxapram and (−)-doxapram. The upper panel pharmacokinetic data was plotted on a linear y-axis, the lower panel represents the same data plotted on a log y-axis.
The difference in efficacy and adverse events seen between the enantiomers is therefore due to genuine differences in the intrinsic pharmacodynamics (i.e. pharmacology and side effects profiles) of the enantiomers, as opposed to differential exposures/pharmacokinetics. Results are illustrated in FIG. 9.

As a reminder, the solubility is the dissolved amount per volume that the medium holds. Take `CCN1CC(CCN2CCOCC2)C(c2ccccc2)(c2ccccc2)C1=O` (racemic) [doxapram, 1-ethyl-4-(2-morphilinoethyl)-3,3-diphenyl-2-pyrrolidinone, reference compound]: in data set [1], the “Arterial Blood Gases - OIRD, pCO2 (mmHg) and saO2 (%): reversal of opioid-induced respiratory depression” value is recorded as “significantly reverse opioid-induced respiratory depression”; the “PaCO2: % reversal” value came out at 90%; the “PaO2: % reversal” value is 22%; the pH % reversal came to 58%. Also, the “saO2: % reversal” value in data set [1] amounted to 33%. Further, the “Plethysmography (MV), Naïve and HVR: potentiation of hypoxic ventilatory response” value in data set [2] is “significantly potentiated the hypoxic ventilatory response”. Besides, the solubility in data set [3] (in EtOH/MeOH 80/20 (v/v)) came out at 19.9 mg/mL (≈ 52.6 mM). In data set [3] (in EtOH/MeOH (50/50 v/v)), the solubility amounted to 12.6 mg/mL (≈ 33.3 mM). Besides, the ED50 in data set [4] (Rattus norvegicus, IV bolus, cumulative doses 1, 3, 10 and 30 mg/kg, 1.5% isoflurane, maximum peak MV values, read-out: ED50 (mg/kg IV), increase in minute ventilation (MV)) came to 4.8 mg/kg. Further, the “potency relative to (+)-enantiomer” value in data set [4] (ventilatory stimulant activity, rat IV) was “approximately 50%”.
With `CCN1CC(CCN2CCOCC2)C(c2ccccc2)(c2ccccc2)C1=O` (single isomer, unassigned; (+)) [(+)-doxapram, (+)-enantiomer of 1-ethyl-4-(2-morphilinoethyl)-3,3-diphenyl-2-pyrrolidinone], in data set [1], the “Arterial Blood Gases - OIRD, pCO2 (mmHg) and saO2 (%): reversal of opioid-induced respiratory depression” value is “significantly reverse opioid-induced respiratory depression; also recorded: Active”; the “PaCO2: % reversal” value worked out at 79%; the “PaO2: % reversal” value is reported as 41%; the pH % reversal was 49%. In addition, the “saO2: % reversal” value in data set [1] is given as 41%. The “Plethysmography (MV), Naïve and HVR: potentiation of hypoxic ventilatory response” value in data set [2] was “significantly potentiated the hypoxic ventilatory response; also recorded: Active”. In addition, in data set [5], the “Plethysmography - OIRD (MV): reversal of opioid-induced respiratory depression” value was “significantly reverses opioid-induced respiratory depression; also recorded: Active”. Also, in the data set on rat (30 mg/kg IV bolus), the “effect on arterial blood pressure and arrhythmias” value was “only a minimal reduction in blood pressure without associated arrhythmias”; the “effect on respiratory flow, inspiratory and expiratory volume, minute ventilation” value is “increased respiratory flow, inspiratory and expiratory volume, as well as enhanced minute ventilation”. For the same molecule, the “Cardiopulmonary response: mean arterial pressure (MAP)” value in the data set on rat (E-Phys, ≧10 mg/kg IV bolus) is on record as “MAP ↓”. Moreover, the “Death (animals out of group of 6)” value in the data set on rats (Pleth., 30 mg/kg IV bolus, 30 mg/kg) is given as 0/6. For the same molecule, the “adverse effects across the studies” value in the data set with rats (rat, in vivo, iv) is given as “did not”. Besides, in the data set with rats (rat, in vivo, iv, 3 mg/kg), the “Clonic movements (animals out of group of 6)” value is listed as 0/6 and the “Hunching, static, increased urination & defecation (animals out of group of 6)” value was 0/6. In addition, the “plasma exposure (time course, maximum concentration, AUC, washout), enantiomer vs enantiomer” value in data set [6] was “directly comparable time course, maximum concentration and exposure (AUC)”. Also, in data set [4] (IV bolus, cumulative doses 1, 3, 10 and 30 mg/kg, 1.5% isoflurane, maximum peak MV values), the “ED50 (mg/kg IV), increase in minute ventilation (MV)” value is 2.2 mg/kg and 2.1 mg/kg.

Source of the values: patent publication US20120270848A1, “Novel Compositions and Therapeutic Methods Using Same” (Galleon Pharmaceuticals, Inc., priority 2010, published 2012).
